Assay results: patent US20120164083A1, “Sweetness Enhancers Including Rebaudioside A or D” (Redpoint Bio Corporation, priority 2009, published 2012)
“And” between values parts separate entries of the source, which are not always exact repeats. Equal values may be shown once. “Also recorded” adds a separate entry of the source.

Columns and labels:
Assay type in all cases: in vivo, human
[1] = tested on: expert taste panel; test: double-blind controlled sweetness intensity test of solutions, sequential monadic, sip and spit (Example 1 protocol); details: for sweetness of the solution compared with 7% (w/v-%) fructose solution: 300 μM in 5% (w/v-%) fructose solution; for sweetness of the solution compared with 7% (w/v-%) sucrose solution: 300 μM in 5% (w/v-%) sucrose solution, 20 judges; for mean sweetness intensity score: scale 0 to 8
[2] = tested on: expert taste panel; test: double-blind controlled sweetness intensity test of enhancer combinations, taste and swallow (Example 12 protocol); details: 5% (w/v-%) sucrose solution alone; scale 0 to 8
Description: The sweetness enhancing effect of the combination of 40 μM Reb A (purity>95%) and 300 μM Reb C (Chromadex, CA; purity 94.9%; 2.9% impurities other than water) on 5% (w/v-%) sucrose solution was evaluated in a double-blind controlled test conducted according to the following protocol. Four products were evaluated by trained judges as follows: • low concentration sucrose (5% w/v) • low concentration sucrose+sweetness enhancer 1 (40 μM Reb A) • low concentration sucrose+sweetness enhancer 2 (300 μM Reb C) • low concentration sucrose+sweetness enhancer 1+sweetness enhancer 2
The products were evaluated using a sequential monadic test protocol. Subjects were given three 10 ml samples to evaluate. Each subject was directed to taste and swallow each sample and then assess the sweetness intensity of the sample. The intensity was rated on a score card by marking a numerical value along a scale from 0 to 8 (e.g., 0=none, 2=slight, 4=definite, 8=very strong). Following the decision regarding the sweetness intensity, subjects were instructed to vigorously rinse their mouth with water. Subjects then were given unsalted crackers to cleanse the palate. […] A second sample was then presented and evaluated as above and the same procedure was followed until all three products were evaluated. […]

[3] = tested on: panelists; test: quantitative flavor profile by trained panelists (Example 11)
Description: The taste of 150, 300, and 600 μM Reb C was evaluated by a test group. 10 panelists were trained over a period of a few weeks to provide a quantitative flavor profile of Reb C. Panelists first were trained using standard tastants representing the different taste modalities given in FIG. 10 (i.e., sweet, bitter, salt, sour, and licorice). They then were trained to use the scales when flavors were mixed together. All intensity ratings are on scales ranging from 0 (no taste) to 8 (highest intensity). The intensity rating for sweet is essentially the same as used in Examples 1 and 6. The taste profiles were obtained for 150, 300, and 600 μM Reb C. Reb A (0.2 mg/ml, a concentration used in some food/beverage applications for sweetening) was also evaluated in the test for comparison. The scale is not linear at the bottom. A rating of 1 is around the threshold for sweetness detection.

[4] = tested on: expert taste panel; test: double-blind controlled sweetness intensity test in iced tea, taste and swallow (Example 6 protocol)
Description: The sweetness enhancing effect of 300 μM Reb C (Chromadex, CA; purity 94.9%; […]) (equivalent to the sweetness intensity of an 8% (w/v-%) sucrose solution) was evaluated in a double-blind controlled test conducted according to the following protocol. Three products were evaluated by trained judges as follows: • high concentration HFCS (14.29% w/v; equivalent to 11% w/v sucrose solution) • low concentration HFCS (10.39% w/v; equivalent to 8% w/v sucrose solution) • low concentration HFCS+sweetness enhancer (test compound)
The products were evaluated using a sequential monadic test protocol. Subjects were given three 10 ml samples to evaluate. Each subject was directed to taste and swallow each sample and then assess the sweetness intensity of the sample. The intensity was rated on a score card by marking a numerical value along a scale from 0 to 8 (e.g., 0=none, 2=slight, 4=definite, 8=very strong). Following the decision regarding the sweetness intensity, subjects were instructed to vigorously rinse their mouth with water. Subjects then were given unsalted crackers to cleanse the palate. A period of 10 minutes elapsed between presentations of each sample to reduce the potential influence of residual taste effects. A second sample was then presented and evaluated as above and the same procedure was followed until all three products were evaluated. […]

[5] = tested on: subjects; test: qualitative taste evaluation of Reb C water solutions (forced-choice and open report, Example 3); details: for qualitative taste description: one line per subject
Description: Subjects were asked to sip most or all of the 10 ml from the first cup, swish the liquid in their oral cavity, and expectorate into a cup, then rinse their mouths vigorously with water. Soon thereafter, the contents of the second cup were sampled in the same manner. Then, subjects were asked to choose the sweeter of the two samples, or if not sweet, to describe the qualitative taste profile of the sample having a detectable taste. […] The subjects have the following qualitative taste descriptions: […]

[6] = 300 μM in 8% (w/v-%) sucrose solution
[7] = 250 μM water solution, five subjects

Compound | sweetness of the solution compared with 7% (w/v-%) fructose solution [1] | sweetness of the solution compared with 7% (w/v-%) sucrose solution [1] | off-tastes [1, 6] | sweetness of the solution compared with 11% (w/v-%) sucrose solution [1, 6] | mean sweetness intensity score ([1]; 8% (w/v-%) sucrose solution with 300 μM Dulc A) | mean sweetness intensity score ([1]; 8% (w/v-%) sucrose solution alone) | mean sweetness intensity score ([1]; 11% (w/v-%) sucrose solution alone) | mean sweetness intensity [2] | sweetness of the solution compared with 8% and 11% (w/v-%) sucrose solutions ([1]; 150 μM in 8% (w/v-%) sucrose solution) | mean sweetness intensity score ([1]; 8% (w/v-%) sucrose solution with 150 μM Reb C) | unpleasant tastes, bitter and licorice ([3]; 150, 300 and 600 μM alone) | intrinsic sweetness ([3]; 150, 300 and 600 μM, scale 0 to 8) | unpleasant tastes, bitter and licorice ([3]; combined with sugar) | sweetness compared with 8% and 11% (w/v-%) sucrose ([4]; 300 μM in iced tea with 8% (w/v-%) sucrose) | sweetness compared with 14.29% (w/v-%) HFCS solution (equivalent to 11% sucrose) ([4]; 300 μM in iced tea with 10.39% (w/v-%) HFCS) | forced-choice identification of the sample against water [5, 7] | qualitative taste description [5, 7] | qualitative taste description ([5]; 250 and 300 μM in water, four subjects)
C=C1C[C@@]23CC[C@H]4[C@@](C)(CCC[C@@]4(C)C(=O)O[C@@H]4O[C@H](CO)[C@@H](O)[C@H](O)[C@H]4O)[C@@H]2CC[C@]1(O[C@@H]1O[C@H](CO)[C@@H](O)[C@H](O)[C@H]1O[C@@H]1O[C@@H](C)[C@H](O)[C@@H](O)[C@H]1O)C3 [Dulc A, dulcoside A] | achieved that of a 7% (w/v-%) fructose solution | achieved that of a 7% (w/v-%) sucrose solution | No off-tastes were detected | approached that of an 11% (w/v-%) sucrose solution | 6.3 |  |  |  |  |  |  |  |  |  |  |  |  | 
OC[C@H]1O[C@@](CO)(O[C@H]2O[C@H](CO)[C@@H](O)[C@H](O)[C@H]2O)[C@@H](O)[C@@H]1O [sucrose, α-D-glucopyranosyl-(1→2)-β-D-fructofuranose, reference compound] |  |  |  |  |  | 5.30 and 5.0 | 6.95 and 6.7 | about 4 |  |  |  |  |  |  |  |  |  | 
rebaudioside C [Reb C] | close to that of a 7% (w/v-%) fructose solution | indistinguishable from that of a 7% (w/v-%) sucrose solution |  | close to that of an 11% (w/v-%) sucrose solution |  |  |  |  | between that of the 8% (w/v-%) sucrose solution and that of an 11% (w/v-%) sucrose solution | 6.10 | barely detected | little or no intrinsic sweetness | undetected | between that of the 8% (w/v-%) solution and that of an 11% (w/v-%) sucrose solution | indistinguishable from that of a 14.29% (w/v-%) HFCS solution | All subjects correctly identified the sample containing Reb C | Metallic, not sweet; also recorded: Aversive (“Nasty”); also recorded: Slight sweet, astringent; also recorded: Faintly sweet; also recorded: Slight sweet/licorice | Both concentrations bitter and/or licorice
